Test results taken from paper PMC6940986, “Structural Insights into the Intracellular Region of the Human Magnesium Transport Mediator CNNM4” (International Journal of Molecular Sciences, 2019).

Target: T1, hCNNM4BAT (CNNM4BAT) (Homo sapiens, UniProt Q6P4Q7)
T1 construct: gene CNNM4; Bateman module (CBS1-CBS2) with helix H0; for NMR U-15N, N-terminal His6-V5-TEV site tag (pET151-D/TOPO), tag cleavage not described; E. coli BL21 CodonPlus; homodimer (CBS module)
Assay: 2D […]-HSQC NMR titration; 1H STD NMR
Assay type: binding
Conditions: estimated; no Mg2+ added; 100 mM HEPES, pH 7.4 preset (7.2 in results), 100 mM NaCl, 298 K; 100 uM protein

T1 sequence (Q6P4Q7 359-511): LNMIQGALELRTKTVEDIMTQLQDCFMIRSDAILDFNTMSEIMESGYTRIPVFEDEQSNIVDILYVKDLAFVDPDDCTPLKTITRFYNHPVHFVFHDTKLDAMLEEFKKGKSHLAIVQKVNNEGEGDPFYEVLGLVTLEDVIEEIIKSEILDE

## Nc1ncnc2c1ncn2[C@@H]1O[C@H](COP(=O)(O)OP(=O)(O)NP(=O)(O)O)[C@@H](O)[C@H]1O [ADPNP]
  KD: ~ 10^−2 to 10^−3 M
